Here are results for 7 compounds from patent US8986652B2, “Method of preparing [123I]iodooctyl fenbufen amide and application thereof” (National Tsing Hua University, priority 2012, dated 2015).

Read-outs that look alike come from different tables or passages of the source. Where only a bound is given, the exact number is not on record here.

Data set [1] concerns the target T1, COX-2 (Ovis aries, UniProt P79208).
T1 construct: purchased Cayman Chemical Ltd 760111
T1 sequence (P79208 17-603): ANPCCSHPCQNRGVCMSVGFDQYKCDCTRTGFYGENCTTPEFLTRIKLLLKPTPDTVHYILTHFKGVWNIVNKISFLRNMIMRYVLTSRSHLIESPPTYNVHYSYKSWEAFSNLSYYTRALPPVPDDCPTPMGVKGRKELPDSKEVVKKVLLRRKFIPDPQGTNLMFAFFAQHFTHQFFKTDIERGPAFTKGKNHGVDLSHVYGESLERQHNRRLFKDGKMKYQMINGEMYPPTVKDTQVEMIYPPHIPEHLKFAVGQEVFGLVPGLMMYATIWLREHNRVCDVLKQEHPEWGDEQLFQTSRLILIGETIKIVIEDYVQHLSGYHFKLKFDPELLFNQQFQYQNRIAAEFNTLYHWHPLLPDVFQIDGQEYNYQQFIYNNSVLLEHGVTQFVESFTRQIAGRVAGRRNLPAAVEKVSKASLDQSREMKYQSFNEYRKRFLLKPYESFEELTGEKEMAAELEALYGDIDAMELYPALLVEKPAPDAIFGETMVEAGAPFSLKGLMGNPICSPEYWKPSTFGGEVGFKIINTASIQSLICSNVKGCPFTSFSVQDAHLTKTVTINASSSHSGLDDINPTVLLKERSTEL
The data set can be described thus: Colorimetric COX inhibitor screening assay (competitive inhibition of substrate transfer, CIST), COX-2. It is filed as biochemical. As to conditions: colorimetric COX (ovine) kit; read-out: IC50 value COX-2, this assay.

Data set [2] addresses T2, COX-1 (Ovis aries, UniProt P05979).
T2 construct: purchased Cayman Chemical Ltd 760111
T2 sequence (P05979 25-600): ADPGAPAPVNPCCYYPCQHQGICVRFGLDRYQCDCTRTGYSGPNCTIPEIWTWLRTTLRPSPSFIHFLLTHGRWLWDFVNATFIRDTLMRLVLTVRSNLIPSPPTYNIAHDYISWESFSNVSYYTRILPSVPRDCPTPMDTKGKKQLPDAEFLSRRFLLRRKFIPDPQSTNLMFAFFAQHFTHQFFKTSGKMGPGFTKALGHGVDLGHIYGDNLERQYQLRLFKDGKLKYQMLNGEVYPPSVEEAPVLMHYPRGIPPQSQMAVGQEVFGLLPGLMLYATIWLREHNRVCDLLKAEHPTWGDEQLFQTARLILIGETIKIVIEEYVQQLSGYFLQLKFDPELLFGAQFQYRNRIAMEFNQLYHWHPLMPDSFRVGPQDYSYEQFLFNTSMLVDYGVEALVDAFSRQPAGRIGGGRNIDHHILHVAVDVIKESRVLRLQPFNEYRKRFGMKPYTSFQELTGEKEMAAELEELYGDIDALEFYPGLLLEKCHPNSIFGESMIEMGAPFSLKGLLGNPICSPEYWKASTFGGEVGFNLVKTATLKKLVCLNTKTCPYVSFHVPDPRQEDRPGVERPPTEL
The data set can be described thus: Colorimetric COX inhibitor screening assay (competitive inhibition of substrate transfer, CIST), COX-1. It is filed as biochemical, ovine.

In data set [3] the target is T2, COX-1. The data set can be described thus: Radioligand binding assay by gel filtration HPLC, COX-1. More on the design: species or system ovine. The note with it: for Binding yield (bound conjugate, accumulated radioactivity fraction) with COX-1: 25° C., 15 min incubation, peak at 5 min / (5 min + 13.6 min). As for the experimental part: (§1) The compound of formula 1 was purified by a set of HPLC consisting of the components of a Waters 510 pump, a linear UVIS detector (254 nm) in series with a Berthhold γ-flow detector, on a ZORBAX SIL column (250 mm×9.4 mm, 5 μm) at 3 mL/min with MeOH/CHCl3=1/99 as the mobile phase. Quality analysis of The compound of formula 1 was performed on the same HPLC setup as described above. The settings for radioactive ligand binding assay included a gel filtration column of TSKgel G3000PWx1 7.5×300 (mm) with a particle size of 10 μm which was purchased from Tosoh Bioscience LLC. The corresponding eluting conditions including PBS buffer and flow rate of 1 mL/min were employed throughout the experiment. The identity of The compound of formula 1 was confirmed with the compound of formula 2 on HPLC chromatogram after coinjection. The peak area of the UV absorbance at 254 nm that should correspond to the compound of formula 2 was calculated by interpolating to the standard curve relating mass to UV absorbance. Only a specific activity below 36 GBq/μmol can be measured accurately. Radioactive measurements were performed by a Capintec R15C dose calibrator.
(§2) The binding experiment was carried out in an eppendorf (0.2 mL) and stood for 10 min for equilibrium. An aliquot (10 μL) was drawn from the commercial stock solution (200 μL). Additional 30 μL of tris buffer (0.1 M, pH=8.0) was added. The solution (40 μL) of COX-1 or COX-2 each was added into a tris buffer (50 μL) together with the addition of a solution of the radiotracer the compound of formula 1 in EtOH with concentration ranging from 66 μCi/10 μL to 70 μCi/10 μL. The whole mixture (100 μL) was incubated at 25° C. for 15 min followed by submission to purification using HPLC. PBS buffer (0.1 M, pH=7.3) was employed as the eluent and the flow rate was set to be 1 mL/min.
(§3) The assay was based on that the retention time of the bound complex between radiolabeled ligand and enzyme was different from that of the unbound ligand in HPLC. […]

The subject of data set [4] is thioacetamide-induced cholangiocarcinoma (CCA) rat. The data set can be described thus: SPECT/CT imaging in normal rat and thioacetamide-induced cholangiocarcinoma (CCA) rat. In kind it is in vivo. The note with it: tail vein. On the procedure: All in vivo experiments were performed in compliance with the Taiwan National Health and Medical Research Council (NHMRC) Code of Practice for the care and use of animals for scientific purposes. Male-, Sprague-Dawley (SD) rats ([…]) were obtained from the Animal Research Center (Chang-Gung Memorial Hospital, Taiwan). Rats were housed under constant environmental conditions and were allowed free access to food and water throughout the experimental period. In vivo studies were performed in a thioacetamide-induced cholangiocarcinoma (CCA) rat (37th week post administration) along with a normal rat as a control.
The rats were anaesthetized via inhalant isoflurane (Forthane, Abott) in 200 mL/min oxygen during the imaging study. […]
The compound of formula 1 (0.76 mCi/1 mL) was administered by the CCA rat via tail vein injection to obtain a summation of one-hour Single Photon Emission Computer Tomography (SPECT) imaging data (FIG. 4(A)). The normal rat was injected with the residual radioactivity of the compound of formula 1 (1.39 mCi/1 mL) (FIG. 4 (B)). All in vivo experiments were performed in compliance with the NHMRC Taiwan Code of Practice for the care and use of animals for scientific purposes, and the raw data from the image further analyzed by Preclinical Multi-Modality Data Analysis software (PMOD Technologies Ltd, Zurich, Switzerland).

The target of data set [5] is T1, COX-2. The data set can be described thus: Radioligand binding assay by gel filtration HPLC, COX-2. More on the design: species or system ovine. The note with it: for Binding yield (bound conjugate, accumulated radioactivity fraction) with COX-2: 25° C., 15 min incubation, peak at 5 min / (5 min + 13.6 min). As for the experimental part:
as §1, §2, §3

The test system of another data set is rat liver tumor lesion. The note with it: cited from earlier work.
A further data set concerns NO. The note with it: antioxidant (e.g. NO) assay; cited from earlier work.
The target of data set [6] is T3, COX-2 (Homo sapiens, UniProt P35354).
T3 sequence (P35354 18-604): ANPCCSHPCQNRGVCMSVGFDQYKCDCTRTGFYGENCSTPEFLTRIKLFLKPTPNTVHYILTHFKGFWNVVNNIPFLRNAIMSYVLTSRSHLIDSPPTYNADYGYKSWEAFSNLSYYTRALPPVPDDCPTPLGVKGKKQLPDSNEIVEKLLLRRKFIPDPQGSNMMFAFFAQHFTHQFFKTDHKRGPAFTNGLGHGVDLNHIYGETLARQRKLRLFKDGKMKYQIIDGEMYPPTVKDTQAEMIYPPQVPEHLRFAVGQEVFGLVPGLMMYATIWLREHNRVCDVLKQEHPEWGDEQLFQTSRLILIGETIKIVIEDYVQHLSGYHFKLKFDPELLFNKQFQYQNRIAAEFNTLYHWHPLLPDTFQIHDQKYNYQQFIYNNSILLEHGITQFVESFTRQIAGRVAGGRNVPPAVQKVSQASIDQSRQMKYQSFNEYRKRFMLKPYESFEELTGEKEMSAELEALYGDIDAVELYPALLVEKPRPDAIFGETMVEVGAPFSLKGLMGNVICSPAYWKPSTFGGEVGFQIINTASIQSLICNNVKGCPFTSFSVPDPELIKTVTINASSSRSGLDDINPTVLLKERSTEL
As to conditions: read-out: IC50 value COX-2, lit. data; literature data; cited from earlier work.

Data set [7] concerns the target COX-1 (Homo sapiens, UniProt P23219). The note with it: read-out: IC50 value COX-1, lit. data; literature data; cited from earlier work.
The mark [8] stands for this setting: colorimetric COX (ovine) kit, read-out: IC50 value COX-1, this assay.

COX-1 (Homo sapiens, UniProt P23219), sequence (P23219 24-599): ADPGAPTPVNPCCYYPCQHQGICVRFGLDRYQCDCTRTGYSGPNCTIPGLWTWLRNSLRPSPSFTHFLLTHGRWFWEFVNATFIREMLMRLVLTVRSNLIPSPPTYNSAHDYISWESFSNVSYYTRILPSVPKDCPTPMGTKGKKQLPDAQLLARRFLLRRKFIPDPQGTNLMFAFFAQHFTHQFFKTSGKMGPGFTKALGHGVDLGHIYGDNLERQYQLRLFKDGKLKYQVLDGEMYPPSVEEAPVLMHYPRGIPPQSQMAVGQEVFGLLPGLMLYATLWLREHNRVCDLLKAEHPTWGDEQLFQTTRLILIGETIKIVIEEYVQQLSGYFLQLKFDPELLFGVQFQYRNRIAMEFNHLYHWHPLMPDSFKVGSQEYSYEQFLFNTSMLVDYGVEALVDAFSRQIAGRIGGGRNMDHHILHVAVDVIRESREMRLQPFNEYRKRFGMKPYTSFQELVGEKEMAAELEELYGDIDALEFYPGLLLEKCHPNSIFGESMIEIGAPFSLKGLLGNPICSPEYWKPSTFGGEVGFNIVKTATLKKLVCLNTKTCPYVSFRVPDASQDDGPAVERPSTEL

Take `O=c1ccn([C@@H]2O[C@H](CO)[C@@H](O)[C@H]2O)c(=O)[nH]1` [uridine]: the IC50 at COX-2 [1] and on COX-1 [2] (setting [8]) was over 10 µM each time.

As for `Oc1ccc(C=Cc2cc(O)cc(O)c2)cc1` [Resveratrol], the IC50 (in general, the midpoint of a concentration-inhibition curve) on COX-1 [2] was determined as 3.9 µM.

`CCCCCCCCNC(=O)CCC(=O)c1ccc(-c2ccc([123I])cc2)cc1` [compound of formula 1, 4-(4′-[^123I]iodobiphenyl-4-yl)-N-octyl-4-oxobutanamide]: on COX-1 [3], the “Binding yield (bound conjugate, accumulated radioactivity fraction) with COX-1” value amounted to 56%. Moreover, the “Intact (unbound) form remained, COX-1 binding experiment” value on COX-1 [3] (peak at 13.6 min) turned out to be 44%. In addition, the “In-vivo distribution of radioactivity, SPECT” value in [4] (CCA tumor rat, 0.76 mCi/1 mL) was “a heterogeneous radioactivity accumulation was addressed in the liver”; in [4] (normal rat, 1.39 mCi/1 mL, 30 mins post administration) it was “a homogeneous pattern, which was localized mainly in the liver and partly in the heart”. For the same compound, at COX-2 [5], the “Binding yield (bound conjugate, accumulated radioactivity fraction) with COX-2” value was found to be 79%. The “Intact (unbound) form remained, COX-2 binding experiment” value on COX-2 [5] (peak at 13.6 min) was 21%.

`C=C(CC)C(=O)c1ccc(OCC(=O)NCCCC[18F])c(Cl)c1Cl` [[^18F]FBuEA, [^18F]-N-(4-fluorobutyl)ethacrynic amide]: the “Image of tumor lesion” value in the data set on rat liver tumor lesion is listed as “only shows the image of cold spot”.

Consider Octyl fenbufen amide [OFA], for which the Anti inflammatory effect result in the data set on NO is recorded as “marginal”.

Take `O=C(O)CCC(=O)c1ccc(-c2ccccc2)cc1` [fenbufen]: the IC50 on COX-2 [6] was 8.1 µM; at COX-2 [1], over 10 µM; at COX-1 [2] (setting [8]) it was over 10 µM; on COX-1 [7], 3.9 µM.

On to `CCCCCCCCNC(=O)CCC(=O)c1ccc(-c2ccc(I)cc2)cc1` [compound of formula 2, 4-(4′-iodobiphenyl-4-yl)-n-octyl-4-oxobutanamide], for which the melting point – broadly, the temperature, or range, at which the solid turns liquid – fell in the range of 181 to 182 °C. The “Binding yield (bound conjugate, accumulated radioactivity fraction) with COX-1” value on COX-1 [3] is 56%. Further, at COX-2 [1], the half-inhibitory concentration (IC50) was over 10 µM. Besides, the 50% inhibitory concentration (IC50) on COX-1 [2] (setting [8]) was over 10 µM. For the same compound, the “Binding yield (bound conjugate, accumulated radioactivity fraction) with COX-2” value on COX-2 [5] was found to be 76%.
